By IC50 is commonly meant the concentration that inhibits the measured activity by half. A higher IC50 goes with weaker potency in that assay.

From patent US20240051955A1, “4-AMINO-3-(4-PHENOXYPHENYL)-1,3-DIHYDRO-2H-IMIDAZO[4,5-C]PYRIDIN-2-ONE DERIVATIVES AND SALTS THEREOF” (Genzyme Corporation, priority 2020, published 2024) come the findings set out here.

In test [1] the target is BTK(h) (Homo sapiens (Human), UniProt Q06187). The test can be described thus: BTK(h) kinase activity study. It counts as biochemical. Particulars: no pre-incubation of compound with enzyme/substrate mix prior to ATP addition. On the procedure: Compounds of Formula Ib, Formula II, and Formula III were tested against BTK(h) as described herein. All compounds tested were prepared to a working stock of 50× final assay concentration in 100% DMSO. Where appropriate, more concentrated stocks were diluted manually to 50× using 100% DMSO. Compounds, which were powders, were reconstituted to a 10 mM stock in 100% DMSO before further dilution to 50×.
The required volume of the 50× stock of test compound was added to the assay well before a reaction mix containing the enzyme and substrate was added. The reaction was initiated by the addition of ATP at the selected concentration. There was no pre-incubation of the compound with the enzyme/substrate mix prior to ATP addition.
Results are expressed as kinase activity remaining, as a percentage of the DMSO control. This is calculated using the following formula: […]
For IC50 determinations, data are analyzed using XLFit version 5.3 (ID Business Solutions). Sigmoidal dose-response (variable slope) curves are fit based on the mean result for each test concentration using non-linear regression analysis. Where the top and/or bottom of the curve fall >10% out with 100 and 0, respectively, either or both of these limits may be constrained at 100 and 0, provided that the QC criterion on R^2 is met.

Test [2] addresses Dopamine transporter (h) (Homo sapiens (Human), UniProt Q01959). The test is described as follows: Dopamine transporter (h) binding assay, [3H]BTCP. The conditions noted are these: Human recombinant (CHO cells); [3H]BTCP 4 nM; 120 min 4° C. On the procedure:
(§1) Compounds of Formula Ia, Formula Ib, Formula III, Formula IV, and Formula V were tested in various in vitro assays. Compound binding was calculated as a % inhibition of the binding of a radioactively labeled ligand specific for each target. Compound enzyme inhibition effect was calculated as a % inhibition of control enzyme activity.
The general procedure is noted below. See Pristupa, Z. B. et al. (1994), Mol. Pharmacol., 45: 125-135. Minor variations to the experimental protocol described below may have occurred during the testing, but if so, they had no impact on the quality of the results obtained.

Test [3] deals with H2 (h) (Homo sapiens (Human), UniProt P25021). The test can be described thus: H2 (h) binding assay, [125I]APT. The conditions noted are these: Human recombinant (CHO cells); [125I]APT 0.075 nM; 120 min RT.
In test [4] the target is δ (DOP) (h) (Homo sapiens (Human), UniProt P41143). The test is described as follows: δ (DOP) (h) binding assay, [3H]DADLE. The conditions noted are these: Human recombinant (Chem-1 (RBL) cells); [3H]DADLE 0.5 nM; 60 min RT. On the procedure: as §1
The general procedure is noted below. See Simonin, F. et al. (1994), Mol. Pharmacol., 46: 1015-1021. Minor variations to the experimental protocol described below may have occurred during the testing but if so, they had no impact on the quality of the results obtained.

The target of test [5] is kappa (h) (KOP) (Homo sapiens (Human), UniProt P41145). The test can be described thus: kappa (h) (KOP) binding assay, [3H]U69593. Particulars: Human recombinant (RBL cells); [3H]U69593 0.5 nM; 60 min RT. On the procedure:
as §1
The general procedure is noted below. See Simonin, F. et al. (1995), Proc. Natl. Acad. Sci. U.S.A., 92: 7006-7010. Minor variations to the experimental protocol described below may have occurred during the testing but if so, they had no impact on the quality of the results obtained.

The target in test [6] is 5-HT5a (h) (Homo sapiens (Human), UniProt P47898). The test can be described thus: 5-HT5a (h) binding assay, [3H]LSD. The conditions noted are these: Human recombinant (HEK-293 cells); [3H]LSD 1.5 nM; 120 min 37° C. On the procedure:
as §1
The general procedure is noted below. See Rees, S. et al. (1994), FEBS Lett., 355: 242-246. Minor variations to the experimental protocol described below may have occurred during the testing but if so, they had no impact on the quality of the results obtained.

Test [7] concerns the target Norepinephrine transporter (h) (Homo sapiens (Human), UniProt P23975). The test is described as follows: Norepinephrine transporter (h) binding assay, [3H]nisoxetine. The conditions noted are these: Human recombinant (CHO cells); [3H]nisoxetine 1 nM; 120 min 4° C. On the procedure:
as §1
The general procedure is noted below. See Pacholczyk, T. et al. (1991), Nature, 350: 350-354. Minor variations to the experimental protocol described below may have occurred during the testing but if so, they had no impact on the quality of the results obtained.

Sequence of BTK(h) (Q06187 whole entry): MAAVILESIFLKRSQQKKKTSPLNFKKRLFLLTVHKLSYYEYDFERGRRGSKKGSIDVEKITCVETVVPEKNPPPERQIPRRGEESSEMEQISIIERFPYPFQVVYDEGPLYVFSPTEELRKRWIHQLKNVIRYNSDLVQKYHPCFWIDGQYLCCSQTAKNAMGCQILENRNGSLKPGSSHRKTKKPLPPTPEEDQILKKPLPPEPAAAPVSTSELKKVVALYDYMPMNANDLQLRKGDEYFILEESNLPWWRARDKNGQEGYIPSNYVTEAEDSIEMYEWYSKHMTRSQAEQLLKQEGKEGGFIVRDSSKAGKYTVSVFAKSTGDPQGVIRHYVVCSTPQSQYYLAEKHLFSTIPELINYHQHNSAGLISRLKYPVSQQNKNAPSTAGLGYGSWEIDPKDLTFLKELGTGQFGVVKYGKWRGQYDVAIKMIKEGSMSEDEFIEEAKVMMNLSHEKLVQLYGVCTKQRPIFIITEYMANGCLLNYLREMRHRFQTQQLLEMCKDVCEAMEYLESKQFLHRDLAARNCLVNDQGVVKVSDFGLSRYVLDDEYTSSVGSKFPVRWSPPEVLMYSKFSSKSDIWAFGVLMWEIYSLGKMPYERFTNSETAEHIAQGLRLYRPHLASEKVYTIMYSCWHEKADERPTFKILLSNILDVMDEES
Sequence of Dopamine transporter (h) (Q01959 whole entry): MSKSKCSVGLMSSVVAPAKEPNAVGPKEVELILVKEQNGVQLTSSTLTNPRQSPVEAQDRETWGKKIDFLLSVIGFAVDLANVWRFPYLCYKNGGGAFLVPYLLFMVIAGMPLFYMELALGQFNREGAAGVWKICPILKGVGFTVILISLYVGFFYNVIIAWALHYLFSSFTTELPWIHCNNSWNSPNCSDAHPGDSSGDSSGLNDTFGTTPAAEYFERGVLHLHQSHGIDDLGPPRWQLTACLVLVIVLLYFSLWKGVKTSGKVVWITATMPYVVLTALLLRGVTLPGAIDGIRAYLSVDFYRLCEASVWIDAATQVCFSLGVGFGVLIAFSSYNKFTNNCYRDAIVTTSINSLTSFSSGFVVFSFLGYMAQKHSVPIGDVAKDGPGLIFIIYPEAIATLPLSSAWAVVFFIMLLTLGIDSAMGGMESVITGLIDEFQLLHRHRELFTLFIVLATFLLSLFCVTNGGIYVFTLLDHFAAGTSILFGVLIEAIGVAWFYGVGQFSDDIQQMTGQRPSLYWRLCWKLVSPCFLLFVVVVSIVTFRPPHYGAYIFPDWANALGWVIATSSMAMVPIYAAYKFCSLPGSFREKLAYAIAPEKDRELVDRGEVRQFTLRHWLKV
Sequence of δ (DOP) (h) (P41143 whole entry): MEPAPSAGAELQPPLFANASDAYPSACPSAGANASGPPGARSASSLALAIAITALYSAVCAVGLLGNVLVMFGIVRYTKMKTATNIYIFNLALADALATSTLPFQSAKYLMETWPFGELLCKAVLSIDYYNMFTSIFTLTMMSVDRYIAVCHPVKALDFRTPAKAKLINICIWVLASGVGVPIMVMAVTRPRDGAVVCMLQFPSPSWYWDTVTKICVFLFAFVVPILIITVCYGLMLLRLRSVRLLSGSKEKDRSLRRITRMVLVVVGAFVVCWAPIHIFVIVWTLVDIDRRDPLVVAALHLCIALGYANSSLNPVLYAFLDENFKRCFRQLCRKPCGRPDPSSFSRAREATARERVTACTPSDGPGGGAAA
Sequence of kappa (h) (KOP) (P41145 whole entry): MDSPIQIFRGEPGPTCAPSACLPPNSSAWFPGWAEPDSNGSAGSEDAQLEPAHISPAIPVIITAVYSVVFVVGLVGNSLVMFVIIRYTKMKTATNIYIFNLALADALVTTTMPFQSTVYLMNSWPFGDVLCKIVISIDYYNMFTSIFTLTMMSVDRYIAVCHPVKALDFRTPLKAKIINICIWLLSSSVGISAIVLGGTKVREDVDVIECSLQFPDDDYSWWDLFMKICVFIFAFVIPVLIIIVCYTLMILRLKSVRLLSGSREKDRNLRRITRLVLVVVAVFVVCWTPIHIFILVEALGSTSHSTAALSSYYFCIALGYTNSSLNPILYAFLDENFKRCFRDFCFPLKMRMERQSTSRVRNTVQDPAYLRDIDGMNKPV
Sequence of H2 (h) (P25021 whole entry): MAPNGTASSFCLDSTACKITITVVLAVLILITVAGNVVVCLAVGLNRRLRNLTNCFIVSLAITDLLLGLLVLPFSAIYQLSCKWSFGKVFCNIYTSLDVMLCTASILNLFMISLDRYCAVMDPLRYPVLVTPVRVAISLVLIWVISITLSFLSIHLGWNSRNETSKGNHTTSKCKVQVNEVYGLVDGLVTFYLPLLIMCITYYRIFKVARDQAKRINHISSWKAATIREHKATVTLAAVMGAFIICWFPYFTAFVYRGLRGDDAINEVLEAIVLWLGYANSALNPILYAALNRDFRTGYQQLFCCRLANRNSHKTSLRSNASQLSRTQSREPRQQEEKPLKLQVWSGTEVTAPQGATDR
Sequence of Norepinephrine transporter (h) (P23975 whole entry): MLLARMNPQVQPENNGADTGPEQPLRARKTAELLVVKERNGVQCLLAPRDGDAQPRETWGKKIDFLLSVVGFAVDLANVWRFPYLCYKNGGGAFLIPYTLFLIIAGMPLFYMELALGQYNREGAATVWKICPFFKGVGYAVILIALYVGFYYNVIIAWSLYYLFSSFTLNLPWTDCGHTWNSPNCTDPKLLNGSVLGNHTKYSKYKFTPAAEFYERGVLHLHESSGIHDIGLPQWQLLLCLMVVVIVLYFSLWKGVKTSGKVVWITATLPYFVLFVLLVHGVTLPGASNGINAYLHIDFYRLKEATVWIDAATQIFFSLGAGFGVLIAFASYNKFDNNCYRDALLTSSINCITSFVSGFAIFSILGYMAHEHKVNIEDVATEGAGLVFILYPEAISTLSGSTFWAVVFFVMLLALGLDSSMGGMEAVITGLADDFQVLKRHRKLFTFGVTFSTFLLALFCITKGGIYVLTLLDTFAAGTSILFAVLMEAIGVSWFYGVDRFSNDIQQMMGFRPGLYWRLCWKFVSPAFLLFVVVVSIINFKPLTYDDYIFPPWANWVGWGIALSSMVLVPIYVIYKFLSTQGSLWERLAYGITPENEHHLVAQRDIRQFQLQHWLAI
Sequence of 5-HT5a (h) (P47898 whole entry): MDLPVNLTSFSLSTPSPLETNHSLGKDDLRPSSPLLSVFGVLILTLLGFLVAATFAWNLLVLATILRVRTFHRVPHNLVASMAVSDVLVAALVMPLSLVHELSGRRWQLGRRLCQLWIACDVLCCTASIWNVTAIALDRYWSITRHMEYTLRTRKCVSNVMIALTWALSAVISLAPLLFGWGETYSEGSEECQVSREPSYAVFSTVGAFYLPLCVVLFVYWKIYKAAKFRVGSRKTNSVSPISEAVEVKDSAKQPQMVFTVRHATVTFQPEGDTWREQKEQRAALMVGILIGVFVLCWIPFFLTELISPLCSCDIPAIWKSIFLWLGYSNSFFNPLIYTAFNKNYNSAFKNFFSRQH

In the case of `Nc1nccc2c1n(-c1ccc(Oc3ccccc3)cc1)c(=O)n2[C@@H]1CCCN(C(=O)C(O)CO)C1` (stereo partly drawn) [Formula II, 4-amino-3-(4-phenoxyphenyl)-1-[(3R)-1-(2,3-dihydroxypropanoyl)-3-piperidyl]imidazo[4,5-c]pyridin-2-one], in test [1], the concentration for half-maximal inhibition (IC50) was determined as 279 nM.
Regarding `Nc1nccc2c1n(-c1ccc(Oc3ccccc3)cc1)c(=O)n2[C@@H]1CCCNC1` [Formula III], the IC50 in test [1] stood at 1380 nM. The “% inhibition of the binding of radioactively labeled ligand” value came to 96.2% in test [2]; 56.7% in test [3]; 56.7% in test [4]; 54.6% in test [5]; 56.1% in test [6]; 66.7% in test [7].
As to `C=CC(=O)N1C[C@@H](O)C[C@@H](n2c(=O)n(-c3ccc(Oc4ccccc4)cc3)c3c(N)nccc32)C1` [Formula Ia, 4-amino-1-[(3R,5S)-5-hydroxy-1-prop-2-enoyl-3-piperidyl]-3-(4-phenoxyphenyl)imidazo[4,5-c]pyridin-2-one], the “% inhibition of the binding of radioactively labeled ligand” value in test [2] came to 65%.
For the molecule `C=CC(=O)N1C[C@H](O)C[C@@H](n2c(=O)n(-c3ccc(Oc4ccccc4)cc3)c3c(N)nccc32)C1` [Formula Ib, 4-amino-1-[(3R,5R)-5-hydroxy-1-prop-2-enoyl-3-piperidyl]-3-(4-phenoxyphenyl)imidazo[4,5-c]pyridin-2-one], the IC50 in test [1] was determined as 34 nM.
